Laboratory results: PMC11484942, “Rumicidins are a family of mammalian host-defense peptides plugging the 70S ribosome exit tunnel” (Nature Communications, 2024)
Ends that are not written are not given here.

Legend:
[1] = system: E. coli 1057 R2 (rpoS^Q3stop, macB^N470D); details: MHB + 0.9% NaCl
Procedure: Minimum inhibitory concentrations (MIC) were determined by broth microdilution assay based on Clinical and Laboratory Standards Institute (CLSI) guidelines using BSA in the growth medium to minimize AMP nonspecific adsorption. Bacterial test cultures were grown in the Mueller-Hinton broth (MHB, Sigma) at 37 °C to mid-log phase and then diluted with the 2× MH medium supplemented with 1.8% NaCl (or without salt) so that to reach a final cell concentration of 10^6 CFU/mL. 50 µL of the obtained bacterial suspension were added to aliquots of 50 µL of the peptide solutions serially diluted with sterilized 0.1% bovine serum albumin (BSA) in 96-well flat-bottom polystyrene microplates (Eppendorf #0030730011). […] To verify MIC values, the respiratory activity of the bacteria was determined. Briefly, 5 µL of 0.5 mg/mL resazurin (Sigma) was added to the wells after 24 h (or after 48 h for M. smegmatis) of incubation, and the plate was incubated for additional 3 h. In some cases, MICs were determined in the Lysogeny Broth (LB) or Middlebrook 7H9 medium. The reduction of resazurin to resorufin was recorded. […] The results were expressed as the median values determined based on at least three independent experiments performed in triplicate.
Resistance induction experiments were performed using the previously described method. This approach allows for monitoring MIC values after each transfer. Briefly, on the first day, the overnight culture of the wild-type bacteria was diluted with the 2× MHB supplemented with 1.8% NaCl (or without salt) to reach a final cell concentration of 10^6 CFU/mL. 50 µL of the obtained bacterial suspension were added to aliquots of 50 µL of the peptide solutions serially diluted with the sterilized 0.1% BSA in 96-well flat-bottom polystyrene microplates. After incubation for 20 ± 2 h at 37 °C and 950 rpm, MICs were determined as described above. For each subsequent daily transfer, 2–4 μL of the inoculum taken from the first well containing a sub-inhibitory drug concentration was diluted with 2 mL of the fresh 2× MHB supplemented with 1.8% NaCl (or without salt). […] Multiple repeated passages in the presence of antimicrobial agents were performed for each bacterial strain during the experiment. Bacteria that grew at the highest concentrations of AMPs on the final day were passaged further 3 times on drug-free agar plates before determining the final MIC value.

S. aureus ATCC 29213 = type: cell-based, Staphylococcus aureus; details: ATCC 29213, 24 h
Procedure: (§1) The reduction of resazurin to resorufin was recorded.

[2] = system: Mycobacterium smegmatis mc(2)155; type: cell-based; details: Mycobacterium mc(2)155, 24 h
Procedure: as §1

panel of tested strains = details: over all tested strains of Fig. 6a
Procedure: Minimum inhibitory concentrations (MIC) were determined by broth microdilution assay based on Clinical and Laboratory Standards Institute (CLSI) guidelines using BSA in the growth medium to minimize AMP nonspecific adsorption[49]. Bacterial test cultures were grown in the Mueller-Hinton broth (MHB, Sigma) at 37 °C to mid-log phase and then diluted with the 2× MH medium supplemented with 1.8% NaCl (or without salt) so that to reach a final cell concentration of 10^6 CFU/mL. 50 µL of the obtained bacterial suspension were added to aliquots of 50 µL of the peptide solutions serially diluted with sterilized 0.1% bovine serum albumin (BSA) in 96-well flat-bottom polystyrene microplates (Eppendorf #0030730011). […] To verify MIC values, the respiratory activity of the bacteria was determined. Briefly, 5 µL of 0.5 mg/mL resazurin (Sigma) was added to the wells after 24 h (or after 48 h for M. smegmatis) of incubation, and the plate was incubated for additional 3 h. In some cases, MICs were determined in the Lysogeny Broth (LB) or Middlebrook 7H9 medium. The reduction of resazurin to resorufin was recorded. […] The results were expressed as the median values determined based on at least three independent experiments performed in triplicate.

P. aeruginosa ATCC 27853 = type: cell-based, Pseudomonas aeruginosa; details: ATCC 27853, 24 h
Procedure: as §1

M. luteus B-1314 = type: cell-based, Micrococcus luteus; details: B-1314, 24 h
Procedure: as §1

[3] = system: Proteus mirabilis XDR CI 3423; type: cell-based; details: XDR CI 3423, 24 h
Procedure: as §1

[4] = system: E. coli BL21 (DE3) Star cell extract; test: Cell-free protein synthesis (coupled transcription/translation) of EGFP; type: biochemical, Escherichia coli; details: minimum concentration that provides >90% inhibition of the EGFP synthesis in the CFPS system
Procedure: To investigate the effects of AMPs and antibiotics on the coupled transcription/translation process, the test compounds were added to a cell-free protein synthesis (CFPS) reaction mix with a plasmid encoding enhanced green fluorescent protein (EGFP) variant (F64L, S65T, Q80R, F99S, M153T, and V163A) under control of the T7 promoter. The cell lysate was prepared using the E. coli BL21 Star (DE3) overexpressed T7 RNA polymerase as described previously. The reaction mix consisted of the following components: 1.2 mM ATP, 0.8 mM UTP, 0.8 mM GTP, 0.8 mM CTP, 2 mM of each of 20 proteinogenic amino acids, 1.5 mM spermidine, 1 mM putrescine dihydrochloride, 0.06647 mM calcium folinate, […] tRNA from the E. coli MRE 600 strain, 0.33 mM NAD, 120 mM HEPES-KOH (pH 8.0), 10 mM ammonium glutamate, 175 mM potassium glutamate, 60 mM glucose, 15 mM magnesium glutamate, 2% PEG 8000, 25% E. coli BL21 Star (DE3) cell lysate, 1 ng/ml plasmid DNA. The reaction volume was 50 µL. The peptides were dissolved in PBS with the addition of 0.1% BSA. Erythromycin was used in the positive control reactions. The fluorescence of the sample without inhibitor was set as the 100% value. The reaction proceeded for 2 h in 96-well v-bottom black polystyrene microplates (Eppendorf #0030601904) in a plate shaker (30 °C, 1000 rpm). The fluorescence of the synthesized EGFP was measured with the microplate reader AF2200 (λEx = 488 nm, λEm = 510 nm; Eppendorf). The experimental data were obtained from at least two independent experiments performed in triplicate. Non-linear regression curves were generated using GraphPad Prism v.8.0.1 (GraphPad Software Inc.).

[5] = system: ribosome on ermCL / RST1 mRNA; test: Toe-printing (primer-extension inhibition) in PURExpress system; type: biochemical; details: 5 µM
Procedure: Toe-print analysis was performed as previously described[20] on two matrices: ErmCL and RST1. Briefly, the PURExpress system (NEB) was used for transcription and subsequent translation, then a reverse transcription reaction was performed. The ErmCL template was generated by PCR with two partially self-complementary oligonucleotides (Erm-F and Erm-R, Supplementary Table 8). […] oligonucleotide was used for reverse transcription. RST1 template was prepared as previously described[58] using PCR primers (T7fwd and NV1). Concentrations of tested compounds in toe-print were 0.5, 5, or 50 μM. 1% (v/v) DMSO water solution was used as a negative control sample. Two independent experiments were performed using both matrices, and the observed effects were the same.

E. coli BW25113 = test: MIC broth microdilution; type: cell-based, Escherichia coli
Procedure: as §1

E. coli ML-35p = test: Cytoplasmic membrane permeability assay (ONPG); type: cell-based, Escherichia coli; details: 4 h exposure, 10 mM NaPB pH 7.4 + 0.9% NaCl, melittin = 100%, mean of two experiments
Procedure: To examine the ability of the peptides to affect the barrier function of outer and inner membranes of Gram-negative bacteria, we slightly modified the previously described procedure[22] with the use of the E. coli ML-35p strain constitutively expressing cytoplasmic β-galactosidase but lacking lactose permease, and also containing β-lactamase in the periplasmic space. The state of the E. coli ML-35p outer and cytoplasmic membranes was assessed based on their permeability to chromogenic markers nitrocefin (Calbiochem) and o-nitrophenyl-β-D-galactopyranoside (ONPG, AppliChem) which are the β-lactamase and β-galactosidase substrates, respectively. The cells were incubated in the trypticase soy broth (TSB) for 16 h at 37 °C, washed three times with phosphate-buffered saline (PBS, pH 7.4) to remove residual growth media, adjusted to the concentration of 2.5 × 10^8 CFU/mL, and stored on ice until used. Experiments were performed in 10 mM sodium phosphate buffer (NaPB, pH 7.4) with or without the addition of 0.9% NaCl and/or a mixture of divalent cations (0.5 mM CaCl2 and 0.5 mM MgSO4). The final concentration of E. coli ML-35p cells was of 2.5 × 10^7 CFU/mL. The concentrations of ONPG and nitrocefin were of 2.5 mM and 20 µM, respectively. Peptide samples were placed in the wells of a 96-well flat-bottom polystyrene microplate, and optical density of the solution enhanced due to an appearance of the hydrolyzed nitrocefin or ONPG and was measured at 492 and 405 nm, respectively, using a microplate reader AF2200. The final volume in each well was 200 µL. Assays were performed at 37 °C under stirring at 500 rpm. Control experiments were performed under the same conditions without adding a peptide. Two independent experiments were performed, and the curve pattern was the same.

mycobacteria = details: cited from earlier work
Source text: To estimate the therapeutic potential of rumicidins as candidate compounds for combating bacterial infections, we assessed their antimicrobial activity against a wide panel of strains. As expected, antibacterial activities of rumicidins, like those of known PrAMPs, decreased in most cases in the presence of salt, which might inhibit the adsorption of the peptides to the bacterial surface. Besides, their activities against Gram-negative bacteria deficient in SbmA protein (Pseudomonas aeruginosa and Proteus mirabilis) were also less pronounced. Amon ...

E. coli ATCC 25922 = type: cell-based, Escherichia coli; details: ATCC 25922, 24 h
Procedure: as §1

E. cloacae XDR CI 4172 = type: cell-based, Enterobacter cloacae; details: XDR CI 4172, 24 h
Procedure: as §1

[6] = system: human red blood cells (hRBC); test: Hemolysis (hemoglobin release assay); type: cell-based; details: mean
Procedure: (§2) Hemolytic activity of the peptides was tested against the fresh suspension of human red blood cells (hRBC) using the hemoglobin release assay as described previously. Two experiments were performed with the hRBC from blood samples collected from healthy donors by certified medical personnel upon informed written consent. All procedures were approved by the Ethics Committee of the Institute of Experimental Medicine (protocol 1/20 of 2/27/2020) and comply with the ethical principles of the Declaration of Helsinki. The quantitative data were represented as average means with standard deviations. The colorimetric 3-(4,5-dimethylthiazol-2-yl)-2,5-diphenyltetrazolium bromide (MTT) dye reduction assay was used to determine cytotoxicity of the peptides against human keratinocyte cell line (HaCaT) and transformed human embryonic kidney cells (HEK293T). Both cell lines were purchased from American Type Culture Collection (ATCC). 10^4 cells per well in Dulbecco’s modified Eagle’s medium (DMEM/F12) supplemented with 10% fetal bovine serum (FBS, Invitrogen) were placed into 96-well plates and then cultured in the CO2-incubator (5% CO2, 37 °C). After the media were removed, the peptides were dissolved in 100 µL of the same medium and added to cell cultures at different final concentrations. 20 h later, 20 μL of MTT (5 mg/mL, Sigma) was added to each well, and the plates were incubated for 4 h at 37 °C. Then, the media were discarded and 100 µL DMSO-isopropanol mixture at a ratio of 1:1 (v/v) was added to each well to dissolve the crystallized formazan. The absorbance at 570 nm was measured by a microplate reader AF2200 (Eppendorf). An optical density in the wells containing cells cultured without the peptides was assumed to represent 100% cell viability. Two independent experiments were performed for each peptide.

[7] = system: HEK293T (transformed embryonic kidney cells); test: MTT cytotoxicity; type: cell-based, human; details: mean
Procedure: as §2

HaCaT (keratinocytes) = test: MTT cytotoxicity; type: cell-based, human
Procedure: as §2

RIKIPRPPKPRRPHRPRPGRRRPWFPPRFP [Rumicidin-3]
MIC [1]: 4 µM | MIC S. aureus ATCC 29213 (S. aureus ATCC 29213): > 32 µM | Minimum inhibitory concentration (MIC) [2]: 4 µM | median MIC (panel of tested strains): about 2 µM

RRRPRPPYLPRPRPPPFFPPRL [PR-39[1-22]]
MIC [1]: 32 µM | MIC P. aeruginosa ATCC 27853 (P. aeruginosa ATCC 27853): > 32 µM | MIC M. luteus B-1314 (M. luteus B-1314): > 32 µM | MIC S. aureus ATCC 29213 (S. aureus ATCC 29213): > 32 µM | MICs depending on the test medium [2]: 8 to 16 µM | Minimum inhibitory concentration (MIC) [2]: 8 µM | MIC Proteus mirabilis XDR CI 3423 [3]: > 32 µM

KPRPPHRPRPRPRPWFPPRFP [Rum-1[9-29]]
Protein synthesis inhibition [4]: 4 µM | toe-print result [5]: strong AUG toe-print signal comparable to that of the wild-type peptide | Minimum inhibitory concentration MHB + 0.9% NaCl (E. coli BW25113; Mueller-Hinton broth + 0.9% NaCl, 24 h 37 °C, median of ≥3 experiments): 32 µM | Minimum inhibitory concentration MHB (E. coli BW25113; Mueller-Hinton broth without salt, 24 h 37 °C, median of ≥3 experiments): 8 µM | fold change of MIC vs wild-type rumicidin-1 (E. coli BW25113; N-terminal shortening): ≥ 4 fold | permeabilized cells (ONPG hydrolysis, % of melittin) (E. coli ML-35p; 4 µM): 0.080% | permeabilized cells (ONPG hydrolysis, % of melittin) (E. coli ML-35p; 16 µM): 1.213% | permeabilized cells (ONPG hydrolysis, % of melittin) (E. coli ML-35p; 64 µM): 3.493%

PR-39
MIC (mycobacteria): ~ 10 µM

RRIRPRPPRLPRPRPRPLPFPR [Bac7[1-22]]
MIC [1]: 32 µM | MIC E. coli ATCC 25922 (E. coli ATCC 25922): 1 µM | MIC E. cloacae XDR CI 4172 (E. cloacae XDR CI 4172): 1 µM | MIC S. aureus ATCC 29213 (S. aureus ATCC 29213): > 32 µM | Hemolysis ([6]; 0.25 µM): 0.017% | Hemolysis ([6]; 0.5 µM): 0.093% | Hemolysis ([6]; 1 µM): 0.134% | Hemolysis ([6]; 2 µM): 0.206% | Hemolysis ([6]; 4 µM): 0.371% | Hemolysis ([6]; 8 µM): 0.43% | Hemolysis ([6]; 16 µM): 0.525% | Hemolysis ([6]; 32 µM): 0.835% | Hemolysis ([6]; 64 µM): 1.043% | HEK293T cell viability ([7]; 1 µM): 111.372% | HEK293T cell viability ([7]; 2 µM): 111.629% | HEK293T cell viability ([7]; 4 µM): 112.981% | HEK293T cell viability ([7]; 8 µM): 107.36% | HEK293T cell viability ([7]; 16 µM): 102.824% | HEK293T cell viability ([7]; 32 µM): 100.41% | HEK293T cell viability ([7]; 64 µM): 98.194% | HaCaT cell viability (HaCaT (keratinocytes); 1 µM): 99.202% | HaCaT cell viability (HaCaT (keratinocytes); 2 µM): 105.318% | HaCaT cell viability (HaCaT (keratinocytes); 4 µM): 103.256% | HaCaT cell viability (HaCaT (keratinocytes); 8 µM): 103.504% | HaCaT cell viability (HaCaT (keratinocytes); 16 µM): 102.717% | HaCaT cell viability (HaCaT (keratinocytes); 32 µM): 102.854% | HaCaT cell viability (HaCaT (keratinocytes); 64 µM): 101.039%
